Patent US20210163976A1, “GENETICALLY ALTERED PLANTS EXPRESSING HETEROLOGOUS RECEPTORS THAT RECOGNIZE LIPO-CHITOOLIGOSACCHARIDES” (Aarhus Universitet, priority 2018, published 2021)
Entries after “also recorded” stand apart in the source; their conditions may differ.

How the values were obtained:
[1] = molecular target: T1, Medicago truncatula NFP ectodomain (NFP-ECD) variant L147D/L154D (parent SEQ ID NO: 1) (Medicago truncatula, UniProt Q0GXS4, L147D/L154D); experiment: Biolayer interferometry (BLI) binding of hydrophobic patch mutant NFP L147D/L154D to S. meliloti LCO-IV
T1 construct: The Medicago truncatula NFP ectodomain (residues 28-246); AcMNPV gp67 signal peptide (replaces native signal peptide 1-27) (N); hexa-histidine tag (C); made in house; host or cells: Sf9 cells (Spodoptera frugiperda), baculovirus
Method: (§1) Expression and purification of Medicago NFP ectodomain: The Medicago truncatula NFP ectodomain (residues 28-246) was codon-optimized for insect cell expression (Genscript, Piscataway, USA) and cloned into the pOET4 baculovirus transfer vector (Oxford Expression Technologies). The native NFP signal peptide (residues 1-27, predicted by SignalP 4.1) was replaced with the AcMNPV gp67 signal peptide to facilitate secretion and a hexa-histidine tag was added to the C-terminus. Point mutants of NFP were engineered using site-directed mutagenesis. Recombinant baculoviruses were produced in Sf9 cells (Spodoptera frugiperda) using the FlashBac Gold kit (Oxford Expression technologies) according to the manufacturer's instructions with Lipofectin (ThermoFisher Scientific) as a transfection reagent. Protein expression was performed as follows. Suspension-cultured Sf9 cells were maintained with shaking at 299 K in serum-free MAX-XP (BD-Biosciences, discontinued) or HyClone SFX (GE Healthcare) medium supplemented with 1% Pen-Strep (10000 U/ml, Life technologies) and 1% CD lipid concentrate (Gibco). Protein expression was induced by adding recombinant passage 3 virus once the Sf9 cells reached a cell density of 1.0*10^7^6 cells/ml. After 5-7 days of expression, medium supernatant containing NFP ectodomains was harvested by centrifugation. This was followed by an overnight dialysis step against 50 mM Tris-HCl pH 8, 200 mM NaCl at 277 K. The NFP ectodomain was enriched by two subsequent steps of Ni-IMAC purification (HisTrap excel/HisTrap HP, both GE Healthcare). For crystallography experiments, N-glycans were removed using the endoglycosidase PNGase F (1:15 (w/w), room temperature, overnight). As a final purification step, NFP ectodomain was purified by SEC on a Superdex 200 10/300 or HiLoad Superdex 200 16/600 (both GE Healthcare) in phosphate buffered saline at pH 7.2 supplemented to a total of 500 mM NaCl (for binding assays) or 50 mM Tris-HCl, 200 mM NaCl (for crystallography). NFP ectodomain elutes as a single, homogeneous peak corresponding to a monomer. Point mutated versions of NFP were expressed and purified following the same protocol.
(§2) Creation of NFP point mutations: The NFP leucine residues L147 and L154 were replaced with aspartate residues. Aspartate is similar in size to leucine, but negatively charged where leucine is hydrophobic. Point mutants of NFP were engineered using site-directed mutagenesis. In particular, a double-mutated NFP was engineered where the leucine residues L147 and L154 were replaced with aspartate residues to create the mutant NFP L147D L154D. Point mutated versions of NFP were expressed and purified as described in Example 1.
(§3) NFP mutant binding assays: The binding assay using NFP wild type (WT) protein was replicated seven times, while the binding assay using the NFP mutant NFP L147D L154D was replicated four times.
Biolayer interferometry (BLI): Binding of NFP WT and NFP L147D/L154D mutant to S. meliloti LCO-IV was measured on an Octet RED 96 system (Pall ForteBio). […] Equilibrium dissociation constants derived from the steady-state were determined by applying a non-linear regression (one site, specific binding) to the response at equilibrium plotted against the protein concentration. Kinetic parameters were determined by non-linear regression (association followed by dissociation) on the subtracted data. […]

[2] = molecular target: T2, NFP L147D L154D ectodomain (Medicago truncatula, UniProt Q0GXS4, L147D/L154D); experiment: BLI binding of hydrophobic patch mutant NFP-ECD to S. meliloti LCO-IV
T2 construct: The Medicago truncatula NFP ectodomain (residues 28-246) was codon-optimized; AcMNPV gp67 signal peptide (replaces native signal peptide 1-27) (N); made in house; host or cells: Sf9 (Spodoptera frugiperda), baculovirus, secreted into medium
Description: as §2, §3
Biolayer interferometry (BLI): Binding of NFP WT and NFP L147D/L154D mutant to S. meliloti LCO-IV was measured on an Octet RED 96 system (Pall ForteBio). S. meliloti LCO consists of a tetrameric/pentameric N-acetylglucosamine backbone that is O-sulfated on the reducing terminal residue, 0-acetylated on the non-reducing terminal residue, and mono-N-acylated by unsaturated C16 acyl groups. Biotinylated ligand conjugates were immobilized on streptavidin biosensors (kinetic quality, Pall ForteBio) at a concentration of 125-250 nM for 5 minutes. The binding assays were replicated 7 times for the NFP WT, and 4 times for the NFP L147D/L154D mutant. Data analysis was performed in GraphPad Prism 6 software (GraphPad Software, Inc.). Equilibrium dissociation constants derived from the steady-state were determined by applying a non-linear regression (one site, specific binding) to the response at equilibrium plotted against the protein concentration. Kinetic parameters were determined by non-linear regression (association followed by dissociation) on the subtracted data. Binding ofA. thaliana CERK1 (AtCERK1) to chitopentaose (C05) and chitooctaose (C08) was measured in the same way.

[3] = molecular target: T3, Medicago truncatula NFP ectodomain (NFP-ECD, residues 28-246), wild type, SEQ ID NO: 1 (Medicago truncatula, UniProt Q0GXS4); experiment: Biolayer interferometry (BLI) binding of NFP / NFP-ECD to immobilized LCO and CO ligands; details: further BLI assays, FIGS. 15B-15E, analyte 1.56-100 μM; listed as chitin
T3 construct: The Medicago truncatula NFP ectodomain (residues 28-246); AcMNPV gp67 signal peptide (replaces native signal peptide 1-27) (N); hexa-histidine tag (C); made in house; host or cells: Sf9 cells (Spodoptera frugiperda), baculovirus
Method: as §1
(§4) Biolayer interferometry (BLI): Binding of NFP and mutated versions of NFP to ligands was measured on an Octet RED 96 system (Pall ForteBio). The ligands used were LCO-IV (from S. meliloti), LCO-V (from S. meliloti), LCO-V (from M. loti), and C06 (from M. loti). S. meliloti LCO consists of a tetrameric/pentameric N-acetylglucosamine backbone that is 0-sulfated on the reducing terminal residue, 0-acetylated on the non-reducing terminal residue, and mono-N-acylated by unsaturated C16 acyl groups. M. loti LCO is a pentameric N-acetylglucosamine with a cis-vaccenic acid and a carbamoyl group at the non-reducing terminal residue together with a 2,4-O-acetylfucose at the reducing terminal residue. Biotinylated ligand conjugates were immobilized on streptavidin biosensors (kinetic quality, Pall ForteBio) at a concentration of 125-250 nM for 5 minutes. The binding assays using the S. meliloti ligands (LCO-IV and LCO-V) were replicated seven times, while the binding assays using the M loti ligands (LCO-V and C06) were replicated six times. Data analysis was performed in GraphPad Prism 6 software (GraphPad Software, Inc.). Equilibrium dissociation constants derived from the steady-state were determined by applying a non-linear regression (one site, specific binding) to the response at equilibrium plotted against the protein concentration. Kinetic parameters were determined by non-linear regression (association followed by dissociation) on the subtracted data.
(§5) Mutated lipochitooligosaccharide (LCO) ligands: S. meliloti LCO consists of a tetrameric/pentameric N-acetylglucosamine backbone that is O-sulfated on the reducing terminal residue, O-acetylated on the non-reducing terminal residue, and mono-N-acylated by unsaturated C16 acyl groups. […]

[4] = molecular target: T4, Hordeum vulgare RLK10 (HvRLK10; HvLysM-RLK10) ectodomain (residues 25-231), SEQ ID NO: 29 (construct SEQ ID NO: 28) (Hordeum vulgare, UniProt A0A8I6Y103); experiment: BLI binding of barley HvRLK10 ectodomain; design: species or system Hordeum vulgare (barley); details: FIGS. 13A, 13C-13D
T4 construct: full-length natural protein 633 aa beginning […]

[5] = molecular target: T3, Medicago truncatula NFP ectodomain (NFP-ECD, residues 28-246), wild type, SEQ ID NO: 1; experiment: Microscale thermophoresis (MST) binding of NFP to carbohydrate ligands; details: read-out: Dissociation constant (Kd)
Method: as §1, with “Point mutated versions of NFP were expressed and purified following the same protocol.” left out

[6] = molecular target: T5, Medicago NFP ectodomain (NFP-ECD, WT) (Medicago truncatula, UniProt Q0GXS4); experiment: Biolayer interferometry (BLI) binding of NFP-ECD to immobilized biotinylated ligands; details: further BLI assays, FIGS. 15B-15E; listed as chitin
T5 construct: The Medicago truncatula NFP ectodomain (residues 28-246) was codon-optimized; AcMNPV gp67 signal peptide (replaces native signal peptide 1-27) (N); made in house; host or cells: Sf9 (Spodoptera frugiperda), baculovirus, secreted into medium
T5 sequence (Q0GXS4 28-246): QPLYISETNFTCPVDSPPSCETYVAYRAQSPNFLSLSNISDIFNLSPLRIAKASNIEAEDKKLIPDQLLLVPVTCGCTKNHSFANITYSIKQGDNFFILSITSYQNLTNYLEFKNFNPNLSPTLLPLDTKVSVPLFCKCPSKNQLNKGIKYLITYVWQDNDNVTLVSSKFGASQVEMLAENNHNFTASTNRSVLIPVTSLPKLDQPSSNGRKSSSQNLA
Method: as §1, §4, §5

HvRLK10 ectodomain = experiment: BLI binding of HvRLK10 ectodomain to ligands; design: species or system H. vulgare; details: FIGS. 13A, 13C, 13D
Medicago NFP ectodomain = molecular target: T6, Medicago NFP ectodomain (Medicago truncatula, UniProt Q0GXS4); experiment: Microscale thermophoresis (MST) binding of ligands to labelled NFP; details: carbohydrate ligands
T6 construct: The Medicago truncatula NFP ectodomain (residues 28-246) was codon-optimized; AcMNPV gp67 signal peptide (replaces native signal peptide 1-27) (N); made in house; host or cells: Sf9 (Spodoptera frugiperda), baculovirus, secreted into medium
T6 sequence (Q0GXS4 28-246): T5 sequence (Q0GXS4 28-246)
Method: Expression and purification of Medicago NFP ectodomain: The Medicago truncatula NFP ectodomain (residues 28-246) was codon-optimized for insect cell expression (Genscript, Piscataway, USA) and cloned into the pOET4 baculovirus transfer vector (Oxford Expression Technologies). The native NFP signal peptide (residues 1-27, predicted by SignalP 4.1) was replaced with the AcMNPV gp67 signal peptide to facilitate secretion and a hexa-histidine tag was added to the C-terminus. Point mutants of NFP were engineered using site-directed mutagenesis. Recombinant baculoviruses were produced in Sf9 cells (Spodoptera frugiperda) using the FlashBac Gold kit (Oxford Expression technologies) according to the manufacturer's instructions with Lipofectin (ThermoFisher Scientific) as a transfection reagent. Protein expression was performed as follows. Suspension-cultured Sf9 cells were maintained with shaking at 299 K in serum-free MAX-XP (BD-Biosciences, discontinued) or HyClone SFX (GE Healthcare) medium supplemented with 1% Pen-Strep (10000 U/ml, Life technologies) and 1% CD lipid concentrate (Gibco). Protein expression was induced by adding recombinant passage 3 virus once the Sf9 cells reached a cell density of 1.0*10^7^6 cells/ml. After 5-7 days of expression, medium supernatant containing NFP ectodomains was harvested by centrifugation. […]

T2 sequence (Q0GXS4 28-246 L147D/L154D): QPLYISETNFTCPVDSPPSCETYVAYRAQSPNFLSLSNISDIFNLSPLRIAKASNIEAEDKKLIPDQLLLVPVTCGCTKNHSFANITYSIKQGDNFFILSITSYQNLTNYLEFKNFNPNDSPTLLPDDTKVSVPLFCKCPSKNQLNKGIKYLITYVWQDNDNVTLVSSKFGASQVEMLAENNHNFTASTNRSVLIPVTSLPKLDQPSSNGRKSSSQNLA
T1 sequence (Q0GXS4 28-246 L147D/L154D): as above
T4 sequence (A0A8I6Y103 25-231): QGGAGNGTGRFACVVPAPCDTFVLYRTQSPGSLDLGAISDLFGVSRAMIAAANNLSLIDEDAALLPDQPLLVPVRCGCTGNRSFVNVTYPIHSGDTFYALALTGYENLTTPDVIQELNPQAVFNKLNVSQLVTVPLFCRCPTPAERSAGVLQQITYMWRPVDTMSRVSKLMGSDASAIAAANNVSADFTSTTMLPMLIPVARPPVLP

With CCCCCC/C=C\CCCCC/C=C/C(=O)N[C@H]1[C@H](O[C@H]2[C@H](O)[C@@H](NC(C)=O)[C@H](O[C@H]3[C@H](O)[C@@H](NC(C)=O)[C@H](O[C@H]4[C@H](O)[C@@H](NC(C)=O)C(O)O[C@@H]4COS(=O)(=O)O)O[C@@H]3CO)O[C@@H]2CO)O[C@H](COC(C)=O)[C@@H](O)[C@@H]1O (stereo partly shown) [S. meliloti LCO-IV] the “Affinity change versus NFP WT (in words)” value ([1]; FIG. 4B) was “approximately two times lower affinity”, the “Association (Kon) change versus NFP WT (in words)” value ([1]; FIG. 4B) was “almost unaffected” and the “Dissociation (Koff), times faster than NFP WT” value ([1]; FIG. 4B) was “approximately 15 times”. The “Association rate (kon), fold faster than WT NFP-ECD” value ([1]; FIGS. 16A-16C) was 4.5 fold, the “Dissociation rate (koff), fold increase compared to WT NFP-ECD” value ([1]; FIGS. 16A-16C) was 59 fold and the “affinity compared to NFP WT” value ([2]; FIG. 4B) was “approximately two times lower affinity”. For the same molecule, the “association (Kon) compared to NFP WT” value ([2]; FIG. 4B) was “almost unaffected”, the “association rate (kon) faster than WT NFP-ECD” value ([2]; FIGS. 16A-16C) was 4.5 fold and the “dissociation rate (koff) increase compared to WT NFP-ECD” value ([2]; FIGS. 16A-16C) was 59 fold. The “lower affinity compared to WT NFP-ECD” value ([2]; FIGS. 16A-16C) was 13 fold.
In the case of CC(=O)N[C@H]1[C@H](O[C@H]2[C@H](O)[C@@H](NC(C)=O)[C@H](O[C@H]3[C@H](O)[C@@H](NC(C)=O)C(O)O[C@@H]3CO)O[C@@H]2CO)O[C@H](CO)[C@@H](O[C@@H]2O[C@H](CO)[C@@H](O[C@@H]3O[C@H](CO)[C@@H](O)[C@H](O)[C@H]3NC(C)=O)[C@H](O)[C@H]2NC(C)=O)[C@@H]1O (stereo partly shown) [CO5], the “Binding to NFP-ECD (in words)” value [3] is reported as “did not bind; also recorded: does not bind”, the “Binding to HvRLK10 ectodomain (in words)” value [4] is reported as “did not bind” and the Kd [5] is reported as 93 µM. For the same molecule, the “NFP-ECD binding (BLI)” value [6] was “did not bind; also recorded: does not bind” and the “HvRLK10 ectodomain binding (BLI)” value (HvRLK10 ectodomain) was “did not bind”.
With maltohexaose the “binding to NFP (MST)” value (Medicago NFP ectodomain) was “not able to bind”.
